Data: patent US6093732A, “4-hydroxyquinoline-3-carboxamides and hydrazides as antiviral agents” (Pharmacia & Upjohn Company, priority 1998, dated 2000)

target: T1, HCMV polymerase (Human cytomegalovirus, UniProt P08546); experiment: HCMV polymerase scintillation proximity assay (SPA), modified version; format: biochemical; settings: CMV polymerase; Table 1; modified assay with 4.5 mM DTT, compounds in 100% DMSO; read-out: Antiviral Selective Polymerase IC50 Values, CMV
T1 construct: made in house; host or cells: recombinant baculovirus-infected SF-9 cells
T1 sequence (P08546 whole entry): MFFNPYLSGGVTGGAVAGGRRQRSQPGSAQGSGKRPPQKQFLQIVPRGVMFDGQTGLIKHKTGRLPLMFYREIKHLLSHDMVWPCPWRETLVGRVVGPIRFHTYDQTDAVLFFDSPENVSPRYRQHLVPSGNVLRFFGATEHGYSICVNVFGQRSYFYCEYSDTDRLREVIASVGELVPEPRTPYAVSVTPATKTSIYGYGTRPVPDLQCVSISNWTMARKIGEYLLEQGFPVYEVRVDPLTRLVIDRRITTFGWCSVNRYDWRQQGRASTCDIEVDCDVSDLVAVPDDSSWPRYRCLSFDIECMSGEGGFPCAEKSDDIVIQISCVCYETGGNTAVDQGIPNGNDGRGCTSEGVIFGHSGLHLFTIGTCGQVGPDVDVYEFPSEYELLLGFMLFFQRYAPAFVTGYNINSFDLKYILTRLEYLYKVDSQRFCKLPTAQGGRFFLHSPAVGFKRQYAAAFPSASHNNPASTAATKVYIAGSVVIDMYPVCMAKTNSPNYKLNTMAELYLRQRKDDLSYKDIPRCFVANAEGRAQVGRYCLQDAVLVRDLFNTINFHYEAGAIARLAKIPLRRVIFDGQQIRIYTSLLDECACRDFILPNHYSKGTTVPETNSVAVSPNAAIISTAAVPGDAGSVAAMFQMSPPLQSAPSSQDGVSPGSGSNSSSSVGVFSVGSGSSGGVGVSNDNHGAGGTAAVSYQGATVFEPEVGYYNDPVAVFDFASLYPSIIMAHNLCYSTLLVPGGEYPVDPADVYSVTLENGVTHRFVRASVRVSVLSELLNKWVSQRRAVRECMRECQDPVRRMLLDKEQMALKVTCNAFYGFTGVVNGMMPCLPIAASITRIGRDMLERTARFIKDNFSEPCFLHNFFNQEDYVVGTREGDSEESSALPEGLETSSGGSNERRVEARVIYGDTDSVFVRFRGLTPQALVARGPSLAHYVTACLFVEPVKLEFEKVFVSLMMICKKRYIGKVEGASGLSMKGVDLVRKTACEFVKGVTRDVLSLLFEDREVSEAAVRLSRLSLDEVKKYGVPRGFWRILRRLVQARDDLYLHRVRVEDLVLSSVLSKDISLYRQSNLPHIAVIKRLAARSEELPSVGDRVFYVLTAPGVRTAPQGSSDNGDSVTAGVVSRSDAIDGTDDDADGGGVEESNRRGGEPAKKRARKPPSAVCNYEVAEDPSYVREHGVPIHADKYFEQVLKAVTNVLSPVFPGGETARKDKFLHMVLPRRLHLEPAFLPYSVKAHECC
Protocol: The HCMV polymerase assay is performed using a scintillation proximity assay (SPA) as described in several references, such as N. D. Cook, et al., Pharmaceutical Manufacturing International, pages 49-53 (1992); K. Takeuchi, Laboratory Practice, September issue (1992); U.S. Pat. No. 4,568,649 (1986); which are incorporated by reference herein. Reactions are performed in 96-well plates. The assay is conducted in 100 μl volume with 5.4 mM HEPES (pH 7.5), 11.7 mM KCl, 4.5 mM MgCl2, 0.36 mg/ml BSA, and 90 nM ^3 H-dTTP. Assays are run with and without CHAPS, (3-[(3-Cholamidopropyl)-dimethylammonio]-1-propane-sulfonate) at a final concentration of 2 mM. HCMV polymerase is diluted in enzyme dilution buffer containing 50% glycerol, 250 mM NaCl, 10 mM HEPES (pH 7.5), 100 μg/ml BSA, and 0.01% sodium azide. The HCMV polymerase, which is expressed in recombinant baculovirus-infected SF-9 cells and purified according to literature procedures, is added at 10% (or 10 μl) of the final reaction volume, i.e., 100 μl. Compounds are diluted in 50% DMSO and 10 μl are added to each well. Control wells contain an equivalent concentration of DMSO. Unless noted otherwise, reactions are initiated via the addition of 6 nM biotinylated poly(dA)-oligo(dT) template/primer to reaction mixtures containing the enzyme, substrate, and compounds of interest. Plates are incubated in a 25° C. or 37° C. H2 O bath and terminated via the addition of 40 μl/reaction of 0.5 M EDTA (pH 8) per well. Reactions are terminated within the time-frame during which substrate incorporation is linear and varied depending upon the enzyme and conditions used, i.e., 30 min. for HCMV polymerase. Ten μl of streptavidin-SPA beads (20 mg/ml in PBS/10% glycerol) are added following termination of the reaction. Plates are incubated 10 min. at 37° C., then equilibrated to room temperature, and counted on a Packard Topcount. Linear regressions are performed and IC50 's are calculated using computer software.
A modified version of the above HCMV polymerase assay is performed as described above, but with the following changes: Compounds are diluted in 100% DMSO until final dilution into assay buffer. In the previous assay, compounds are diluted in 50% DMSO. 4.5 mM dithiotherotol (DTT) is added to the polymerase buffer. […] Other viral polymerase assays are performed using procedures similar to those described above.

| SMILES | IC50 [µM] |
| --- | --- |
| COCCOc1c(F)cc2c(O)c(C(=O)NCc3ccc(Cl)cc3)cnc2c1F [Example 83, N-((4-Chlorophenyl)methyl)-6,8-difluoro-4-hydroxy-7-(2-(methoxy)ethoxy)-3-quinolinecarboxamide] | 4.3 |
| COCCOc1c(F)c(F)cc2c(O)c(C(=O)NCc3ccc(Cl)cc3)cnc12 [Example 84, N-((4-Chlorophenyl)methyl)-6,7-difluoro-4-hydroxy-8-(2-(methoxy)ethoxy)-3-quinolinecarboxamide] | 0.79 |
| COCCOc1c(F)cc2c(O)c(C(=O)NCc3ccc(Cl)cc3)cnc2c1OCCOC [Example 85, N-((4-Chlorophenyl)methyl)-6-fluoro-7,8-di(2-(methoxy)ethoxy)-4-hydroxy-3-quinolinecarboxamide] | 18.1 |
| CC(C)Oc1c(F)cc2c(O)c(C(=O)NCc3ccc(Cl)cc3)cnc2c1F [Example 86, N-((4-Chlorophenyl)methyl)-6,8-difluoro-4-hydroxy-7-(1-methylethoxy)-3-quinolinecarboxamide] | 10.7 |
| COCCNc1c(F)cc2c(O)c(C(=O)NCc3ccc(Cl)cc3)cnc2c1F [Example 88, N-(4-Chlorobenzyl)-6,8-difluoro-4-hydroxy-7-[(2-methoxyethyl)amino]-3-quinolinecarboxamide] | 30.3 |
| N#CCCCC#Cc1cc(F)c2ncc(C(=O)NCc3ccc(Cl)cc3)c(O)c2c1 [Example 89, N-(4-Chlorobenzyl)-6-(5-cyano-1-pentynyl)-8-fluoro-4-hydroxy-3-quinolinecarboxamide] | 7.2 |
| O=C(NNc1ccc(Cl)cc1)c1cnc2ccc(I)cc2c1O [Example 91, 4-Hydroxy-6-iodo-3-quinolinecarboxylic acid 2-(4-chlorophenyl)hydrazide] | 3.8 |
| O=C(NCc1ccc(Cl)cc1)c1cnc2c(F)cc(C#CCCO)cc2c1O [Example 94, N-(4-Chlorobenzyl)-8-fluoro-4-hydroxy-6-(4-hydroxy-1-butynyl)-3-quinolinecarboxamide] | 5.3 |
| COCC#Cc1cc(F)c2ncc(C(=O)NCc3ccc(Cl)cc3)c(O)c2c1 [Example 95, N-(4-Chlorobenzyl)-8-fluoro-4-hydroxy-6-(3-methoxy-1-propynyl)-3-quinolinecarboxamide] | 1.9 |
| CC(O)C#Cc1cc(F)c2ncc(C(=O)NCc3ccc(Cl)cc3)c(O)c2c1 (stereo not shown) [Example 96, N-(4-Chlorobenzyl)-8-fluoro-4-hydroxy-6-(3-hydroxy-1-butynyl)-3-quinolinecarboxamide] | 4.5 |

Now from value to compound:

| IC50 [µM] | SMILES |
| --- | --- |
| 7.9 | O=C(NCc1ccc(Cl)cc1)c1cnc2c(F)cc(-c3nccs3)cc2c1O [Example 87, N-(4-Chlorobenzyl)-8-fluoro-4-hydroxy-6-(1,3-thiazol-2-yl)-3-quinolinecarboxamide] |
| 2.9 | O=C(NCc1ccc(Cl)cc1)c1cnc2c(F)cc(-c3ccccn3)cc2c1O [Example 90, N-(4-Chlorobenzyl)-8-fluoro-4-hydroxy-6-(2-pyridinyl)-3-quinolinecarboxamide] |
| 20.6 | O=C(NCc1ccc(Cl)cc1)c1cnc2c(F)cc(C#Cc3ccccn3)cc2c1O [Example 92, N-(4-Chlorobenzyl)-8-fluoro-4-hydroxy-6-[2-(2-pyridinyl)ethynyl]-3-quinolinecarboxamide] |
| 18.6 | O=C(NCc1ccc(Cl)cc1)c1cnc2c(F)cc(-c3cc(Br)cs3)cc2c1O [Example 97, 6-(4-Bromo-2-thienyl)-N-(4-chlorobenzyl)-8-fluoro-4-hydroxy-3-quinolinecarboxamide] |
| 1.3 | NNC(=S)c1cc(F)c2ncc(C(=O)NCc3ccc(Cl)cc3)c(O)c2c1 [Example 98, N-(4-Chlorobenzyl)-8-fluoro-6-(hydrazinocarbothioyl)-4-hydroxy-3-quinolinecarboxamide] |
| 6.7 | Cc1nnc(-c2cc(F)c3ncc(C(=O)NCc4ccc(Cl)cc4)c(O)c3c2)s1 [Example 100, N-(4-Chlorobenzyl)-8-fluoro-4-hydroxy-6-(5-methyl-1,3,4-thiadiazol-2-yl)-3-quinolinecarboxamide] |
